# Source: patent publication US4118561A, “7-(Substituted)-7H-pyrrolo[3,2-f]quinazoline-1,3-diamines” (priority 1977, dated 1978)
# Like-named read-outs stand apart in the source and are kept apart here.
# Assays:
# [1] = system: Plasmodium berghei KBG 173; experiment: Antimalarial blood schizonticidal test in mice; format: in vivo, Plasmodium berghei (infected ICR/HA Swiss mice); parameters: ΔMST (increase in mean survival time): unit: days; settings: s.c.; for ED100 / minimal effective dose: Plasmodium berghei, sc, single dose; for ED100: read-out: Lowest Dose Curing All Mice; for minimal effective dose: read-out: Min. Curing Dose; for Cure/Treat at Min. Curing Dose: at the Min. Curing Dose
# Text: (§1) In addition, the invention provides compounds which have antimalarial activity in vivo as evidenced by a standard blood schizonticidal test in mice infected with Plasmodium berghei KBG 173.
# (§2) Utilizing young ICR/HA Swiss mice and a standard inoculum of Plasmodium berghei KBG 173, it is possible to produce a uniform disease fatal to 100% of untreated animals within 6 to 8 days with a mean survival time of 6.2 days. Test animals weigh from 18 to 22 grams but weight variations in any given experimental or control group are confined to 2-3 grams. All animals in any given test are approximately of the same age. Animals on test are housed in metal-topped plastic cages, given a standard laboratory diet and water ad libitum.
# (§3) Test animals receive an intraperitoneal injection of 0.5 ml. of 1:100 dilution of heparinized heart's blood with a minimum of 90% parasitized cells (4 × 10^7 cells), drawn from donor mice infected one week earlier with Plasmodium berghei. The donor strain is maintained by weekly passages in separate groups of mice inoculated with a 0.5 ml. of 1:500 dilution of heparinized heart's blood.
# (§4) Test compounds are administered after dissolution or suspension in peanut oil. A single dose is given subcutaneously 72 hours after the mice are infected with Plasmodium berghei. At this time a 10-15 percent parasitemia has developed; the disease is well established but has not produced sufficient debility to alter the response of the host to toxic effects of the drug on test. Since treatment is withheld for three days to permit the infection to become well established and death occurs in untreated controls within 6-8 days, it is felt that this system presents a candidate compound with the maximum challenge. In order to check factors such as changes in the infectivity of Plasmodium berghei or in the susceptibility of the host or to detect technical errors, a group of infected animals treated with pyrimethamine at dose levels producing definite increases in survival time is included in a positive control in every experiment.
# (§5) In each experiment test compounds are administered in graded dosages. […] However, if an active drug is toxic for the host, its toxicity may become a limiting factor; continued increases in dose levels also increase the toxic effects and may result in the diminution of survival times. Deaths prior to the sixth day, when untreated controls begin to die, are regarded as nonparasitic and become the basis for toxicity evaluations. […] In calculating mean survival time, toxic deaths and 60-day survivors are not included.
# (§6) Compounds are considered active which produce a cure in at least one test animal or which produce significant increases in mean survival times of the treated animals as compared with the mean survival times of untreated controls, provided that no drug related deaths (toxicity) are noted at the active dose.
# [2] = Antimalarial blood schizonticidal test in mice; format: in vivo, Plasmodium berghei (infected ICR/HA Swiss mice); parameters: ΔMST (increase in mean survival time): unit: days; settings: mouse, in vivo, sc, single dose, read-out: Highest Non-Lethal Dose
# Text: as §1, §2, §3, §4, §5, §6
# N. catarrhalis 8193 = experiment: In vitro antibacterial activity (MIC), N. catarrhalis 8193; settings: 18 h
# P. vulgaris 6896 = experiment: In vitro antibacterial activity (MIC), P. vulgaris 6896; settings: Proteus vulgaris, 6896, 18 h
# E. coli 9637 = experiment: In vitro antibacterial activity (MIC), E. coli 9637; settings: Escherichia coli, 9637, 18 h
# S. aureus Smith = experiment: In vitro antibacterial activity (MIC), S. aureus Smith; settings: Staphylococcus aureus, 18 h
# S. aureus 53-180 = experiment: In vitro antibacterial activity (MIC), S. aureus 53-180; settings: Staphylococcus aureus, 53180, 18 h
# K. pneumoniae 10031 = experiment: In vitro antibacterial activity (MIC), K. pneumoniae 10031; settings: Klebsiella pneumoniae, 10031, 18 h
# S. paratyphi 11737 = experiment: In vitro antibacterial activity (MIC), S. paratyphi 11737; format: cell-based; settings: Salmonella enterica, 18 h
# [3] = infected mice, highest dose with no deaths for any reason
# [4] = 336 h, alive on day 14 considered cured, no 60-day data
# [5] = alive on day 14 considered cured
SMILES,"minimal effective dose ([1]; 1440 h, 60-day survivors)",Cure/Treat at Min. Curing Dose ([1]; 60-day survivors),MIC (N. catarrhalis 8193),MIC (P. vulgaris 6896),MIC (E. coli 9637),MIC (S. aureus Smith),MIC (S. aureus 53-180),MIC (K. pneumoniae 10031),MIC (S. paratyphi 11737),also measured
Nc1nc(N)c2c(ccc3c2ccn3Cc2ccccc2Cl)n1 [Example 6],20 mg/kg,5/5,0.061 µg/mL,7.81 µg/mL,0.976 µg/mL,0.976 µg/mL,0.976 µg/mL,0.976 µg/mL,1.95 µg/mL,"ED100 ([1]; 1440 h, 60-day survivors): 20 mg/kg; ΔMST (increase in mean survival time) ([1]; dose 5 mg. per kg.): 8.3; MTD [2, 3]: 160 mg/kg"
Cc1ccccc1Cn1ccc2c3c(N)nc(N)nc3ccc21 [Example 19],40 mg/kg,3/5,0.0152 µg/mL,7.81 µg/mL,0.976 µg/mL,0.488 µg/mL,0.488 µg/mL,0.122 µg/mL,3.9 µg/mL,ΔMST (increase in mean survival time) ([1]; dose 40 mg. per kg.): 8.4
"CC(=O)c1ccc(Cn2ccc3c4c(N)nc(N)nc4ccc32)cc1 [Example 61, 7-[(4-Acetylphenyl)methyl]-7H-pyrrolo[3,2-f]-quinazoline-1,3-diamine]",2.5 mg/kg,4/5,0.0076 µg/mL,1.95 µg/mL,0.488 µg/mL,0.244 µg/mL,0.122 µg/mL,0.061 µg/mL,0.976 µg/mL,"ED100 ([1]; 1440 h, 60-day survivors): 20 mg/kg; ΔMST (increase in mean survival time) ([1]; dose 5 mg. per kg.): 12.0; MTD [2, 3]: 40 mg/kg"
Nc1nc(N)c2c(ccc3c2ccn3Cc2ccc3c(c2)OCO3)n1 [Example 38],10 mg/kg,2/5,0.244 µg/mL,31.3 µg/mL,7.81 µg/mL,7.81 µg/mL,1.95 µg/mL,1.95 µg/mL,15.6 µg/mL,ΔMST (increase in mean survival time) ([1]; dose 2.5 mg. per kg.): 12.2
"Cc1cc2c(ccc3nc(N)nc(N)c32)[nH]1 [Example 98, 8-Methyl-7H-pyrrolo[3,2-f]quinazoline-1,3-diamine]",160 mg/kg,3/5,1.95 µg/mL,15.6 µg/mL,3.9 µg/mL,31.3 µg/mL,31.3 µg/mL,3.9 µg/mL,15.6 µg/mL,ΔMST (increase in mean survival time) ([1]; dose 160 mg. per kg.): 13.9
Cc1ccc(Cn2ccc3c4c(N)nc(N)nc4ccc32)c(C)c1 [Example 22],,,0.0152 µg/mL,7.81 µg/mL,0.976 µg/mL,0.244 µg/mL,0.244 µg/mL,0.244 µg/mL,3.4 µg/mL,"ED100 [1, 4]: 5 mg/kg; minimal effective dose [1, 4]: 5 mg/kg; Cure/Treat at Min. Curing Dose [1, 5]: 5/5; ΔMST (increase in mean survival time) ([1]; dose 2.5 mg. per kg., alive on day 14 considered cured, no 60-day data): 7.6; MTD ([2]; alive on day 14 considered cured, no 60-day data): 80 mg/kg"
Nc1nc(N)c2c(ccc3c2ccn3-c2ccc([N+](=O)[O-])cc2)n1 [Example 77],160 mg/kg,5/5,0.031 µg/mL,250 µg/mL,7.81 µg/mL,3.9 µg/mL,3.9 µg/mL,0.976 µg/mL,62.5 µg/mL,"ED100 ([1]; 1440 h, 60-day survivors): 640 mg/kg; ΔMST (increase in mean survival time) ([1]; dose 40 mg. per kg.): 28.3; MTD [2, 3]: 640 mg/kg"
Nc1nc(N)c2c(ccc3c2ccn3Cc2cccc(F)c2)n1 [Example 4],10 mg/kg,1/5,< 0.0009 µg/mL,0.488 µg/mL,0.244 µg/mL,0.244 µg/mL,0.031 µg/mL,0.061 µg/mL,0.488 µg/mL,"ED100 ([1]; 1440 h, 60-day survivors): 40 mg/kg; ΔMST (increase in mean survival time) ([1]; dose 10 mg. per kg.): 8.3; MTD [2, 3]: 40 mg/kg"
CC(=O)c1ccccc1-n1ccc2c3c(N)nc(N)nc3ccc21 [Example 70],40 mg/kg,1/5,0.0076 µg/mL,0.976 µg/mL,0.244 µg/mL,0.061 µg/mL,0.031 µg/mL,0.0152 µg/mL,0.488 µg/mL,ΔMST (increase in mean survival time) ([1]; dose 40 mg. per kg.): 9.2
Nc1nc(N)c2c(ccc3c2ccn3Cc2cccc3ccccc23)n1 [Example 47],5 mg/kg,2/5,0.0019 µg/mL,31.3 µg/mL,15.6 µg/mL,3.9 µg/mL,0.976 µg/mL,0.976 µg/mL,62.5 µg/mL,"ED100 ([1]; 1440 h, 60-day survivors): 20 mg/kg; ΔMST (increase in mean survival time) ([1]; dose 5 mg. per kg.): 9.2; MTD [2, 3]: 80 mg/kg"
Nc1nc(N)c2c(ccc3c2ccn3Cc2cccc(C(F)(F)F)c2)n1 [Example 12],5 mg/kg,1/5,0.122 µg/mL,62.5 µg/mL,0.976 µg/mL,0.488 µg/mL,0.244 µg/mL,0.488 µg/mL,7.81 µg/mL,ΔMST (increase in mean survival time) ([1]; dose 2.5 mg. per kg.): 7.5
"CC(C)CCn1ccc2c3c(N)nc(N)nc3ccc21 [Example 66, 7-(3-Methylbutyl)-7H-pyrrolo[3,2-f]quinazoline-1,3-diamine]",,,0.0038 µg/mL,3.9 µg/mL,0.976 µg/mL,1.95 µg/mL,0.976 µg/mL,0.244 µg/mL,3.9 µg/mL,ΔMST (increase in mean survival time) ([1]; dose 320 mg. per kg.): 8.1
Nc1nc(N)c2c(ccc3c2ccn3CC2CCCCC2)n1 [Example 54],,,0.0152 µg/mL,3.9 µg/mL,1.95 µg/mL,7.81 µg/mL,3.9 µg/mL,0.488 µg/mL,7.81 µg/mL,ΔMST (increase in mean survival time) ([1]; dose 40 mg. per kg.): 8.5
Nc1nc(N)c2c(ccc3c2ccn3-c2ccc([N+](=O)[O-])cn2)n1 [Example 82],,,0.031 µg/mL,> 250 µg/mL,> 250 µg/mL,0.976 µg/mL,3.9 µg/mL,31.3 µg/mL,> 250 µg/mL,"minimal effective dose [1, 4]: 160 mg/kg; Cure/Treat at Min. Curing Dose [1, 5]: 1/5"
Nc1nc(N)c2c(ccc3c2ccn3-c2ccccc2[N+](=O)[O-])n1 [Example 76],40 mg/kg,4/5,0.031 µg/mL,3.9 µg/mL,0.976 µg/mL,0.244 µg/mL,0.244 µg/mL,0.244 µg/mL,1.95 µg/mL,
CC(=O)c1ccc(-n2ccc3c4c(N)nc(N)nc4ccc32)cc1 [Example 71],40 mg/kg,1/5,0.031 µg/mL,15.6 µg/mL,0.976 µg/mL,1.95 µg/mL,0.488 µg/mL,0.122 µg/mL,7.81 µg/mL,ΔMST (increase in mean survival time) ([1]; dose 20 mg. per kg.): 8.8
CC(C)=CCn1ccc2c3c(N)nc(N)nc3ccc21 [Example 55],640 mg/kg,3/5,0.0038 µg/mL,7.81 µg/mL,3.9 µg/mL,1.95 µg/mL,0.976 µg/mL,0.488 µg/mL,7.81 µg/mL,ΔMST (increase in mean survival time) ([1]; dose 320 mg. per kg.): 9.3
